Reference: paper PMC12736473, “Development and Validation of LC-MS/MS Method for Nintedanib and BIBF 1202 Monitoring in Plasma of Patients with Progressive Pulmonary Fibrosis Associated with Systemic Sclerosis” (Pharmaceutics, 2025)
Like-named read-outs stand apart in the source and are kept apart here.

Assays:
[1] = Short-term stability in human plasma at ambient temperature (≤30 °C); format: in vitro ADME; settings: for Short-term stability, Stability [%]: human plasma, ≤30 °C, vs reference samples
Method: (§1) The stability of NIN and BIBF 1202 in human plasma, including in the short term, autosampler, and freeze–thaw, was evaluated for the QC samples analyzed at two concentrations, 5.00 ng/mL (LQC1) and 170.00 ng/mL (HQC), studied in six replicates per test. The short-term stability of NIN and BIBF 1202 was assessed for the samples that were stored at ambient temperature (≤30 °C) for at least two hours, which were analyzed and compared with freshly prepared samples. Autosampler stability was determined by storing samples in the autosampler at 10 ± 2 °C for at least […]. Freeze–thaw stability was examined over three cycles, in which samples were frozen at ≤−14 °C for 12 h and subsequently thawed at ambient temperature (≤30 °C).
(§2) Autosampler stability was examined by storing samples at 10 ± 2 °C for up to 48 h. No impact of three freeze–thaw cycles (freezing at ≤−14 °C and thawing at ambient temperature) was observed on the stability of NIN or BIBF 1202.

[2] = NIN and BIBF 1202 plasma concentrations (C0, Cmax) in patients treated with NIN, UPLC-MS/MS; format: in vivo, human; settings: for Cmax: human, read-out: Mean Concentration Cmax; for Cmax / Mean Concentration C0: patient plasma; for Concentration in the patient sample (chromatogram): single patient sample after administration of 100 mg dose
Method: Whole blood was collected via standard venipuncture from 24 patients diagnosed with CTD-PPF. Patients received treatment with NIN, of whom 8 were administered a dose of 100 mg twice daily and 16 received 150 mg twice daily. Blood samples were obtained prior to the first daily NIN dose (trough concentration, C0) and 2–3 h afterward (maximum concentration, Cmax). Following collection, samples of whole blood with NIN and metabolite were centrifuged, and then plasma was stored at −70 °C. This study was approved by the Local Bioethics Committee of the National Institute of Geriatrics, Rheumatology, and Rehabilitation in Warsaw (KBT-5/3/2024).
To prepare the samples, 200 μL of plasma was spiked with 20 μL of IS (NIN-d3) and vortexed. Protein precipitation was carried out using 500 μL of chilled ACN solution after we previously neutralized the samples with 50 μL of 2 M sodium carbonate (Na2CO3). The samples were subsequently mixed on an orbital shaker (Vibrax, IKA, Staufen, Germany) for 30 s at 1800 and centrifuged for 10 min at 13,000 rpm, 3 °C. Then, 200 μL of the supernatant was transferred into autosampler vials for LC-MS/MS analysis under the conditions described in Section 2.6 and Section 2.7.
The UPLC Acquity I-class Plus system (Milford, MA, USA, Waters), equipped with a quaternary gradient pump, column oven, degasser unit, and autosampler, was used. The autosampler and column were maintained at 10 ± 2 °C and 40 ± 2 °C, respectively. The isocratic elution was carried out using a mobile phase consisting of 0.1% formic acid in water and acetonitrile (35:65, v/v). The mobile phase flowed through a Zorbax SB-C18 column (100 mm × 3.0 mm, 3.5 µm; Santa Clara, CA, USA, Agilent Technologies) at a flow rate of 0.3 mL/min. The system was equipped with an ASSY FRIT pre-column (0.2 µm, 2.1 mm; Milford, MA, USA, Waters). To prevent the carry-over effect, after the analysis, the injection needle was washed with a mixture consisting of acetonitrile, methanol, isopropyl alcohol, water, and formic acid (250:250:250:250:1, v/v/v/v/v).
Mass spectrometric analysis was performed using a XEVO-TQ-XS quadrupole mass spectrometer (Milford, MA, USA, Waters). Multiple Reaction Monitoring (MRM) chromatograms were acquired and processed with MassLynx 4.2 software (Milford, MA, USA, Waters). Ionization was carried out in positive ion mode using electrospray ionization (ESI+). MS parameters of instruments and analyzed compounds are detailed in Table 1.
The LC-MS/MS method developed and fully validated in this study was used to analyze the concentrations (C0 and Cmax) of nintedanib and its metabolite BIBF 1202 in human plasma. Twenty-four patients were treated with two doses of NIN (8 patients: 100 or 16 patients: 150 mg twice daily). In total, 48 samples were collected from patients at two time points: a morning dose at the trough level, and a dose 2–3 h (Cmax) after the morning dose administration. The concentrations of NIN and its metabolite were determined in the plasma of 24 patients (Male/Female 8:16, mean age 56.2, age range 35–75) with progressive pulmonary fibrosis associated with systemic sclerosis. The obtained results are presented in Table 7 and illustrated graphically (Figure 4).

[3] = Freeze–thaw stability in human plasma, three cycles; format: in vitro ADME; settings: for Freeze–thaw stability, Stability [%]: human plasma, 3 cycles (≤−14 °C / ambient); for Impact of freeze–thaw cycles on stability: three cycles, freezing at ≤−14 °C, thawing at ambient temperature
Method: as §1, §2

[4] = Autosampler stability at 10 ± 2 °C; format: physicochemical, human; settings: after 45 h
Method: as §1, §2

[5] = design: method as in PK study presented in the literature; settings: ref PK study presented in the literature; cited from earlier work
[6] = design: method as in PMID 26072676; settings: cited from earlier work
[7] = 2 h at ambient temperature (≤30 °C)
[8] = NIN 100 mg twice daily, n = 8, 2–3 h after morning dose
[9] = NIN 150 mg twice daily, n = 16, 2–3 h after morning dose
[10] = NIN 100 mg twice daily, n = 8, trough (before first daily dose)
[11] = NIN 150 mg twice daily, n = 16, trough (before first daily dose)

Short-term stability, Stability [%] ([1]; 2 h, HQC (170.00 ng/mL)) | Short-term stability, Stability [%] ([1]; 2 h, LQC1 (5.00 ng/mL)) | Effect of storing plasma samples on concentration [1, 7] | Effect of storing plasma samples on concentration ([1]; 4 h at ≤30 °C) | Cmax [2, 8] [ng/mL] | Cmax [2, 9] [ng/mL] | Mean Concentration C0 [2, 10] [ng/mL] | Mean Concentration C0 [2, 11] [ng/mL] | Concentration in the patient sample (chromatogram) [2] [ng/mL] | Freeze–thaw stability, Stability [%] ([3]; HQC (170.00 ng/mL)) | Freeze–thaw stability, Stability [%] ([3]; LQC1 (5.00 ng/mL)) | Impact of freeze–thaw cycles on stability [3] | Autosampler stability, Stability [%] ([4]; HQC (170.00 ng/mL)) | Autosampler stability, Stability [%] ([4]; LQC1 (5.00 ng/mL)) | Short-term stability, Stability [%] ([1]; 4 h, HQC (170.00 ng/mL)) | Short-term stability, Stability [%] ([1]; 4 h, LQC1 (5.00 ng/mL)) | Compound | Time of peak plasma concentrations after administration [5] [h] | Rate of diarrhea ([6]; patients who continued NIN) [%] | Rate of diarrhea ([6]; patients who initiated NIN) [%]
102.3 | 100.8 | did not cause changes | reduction in the BIBF signal | 26.6 | 57.8 | 9.81 | 35.20 | 28.0 | 105.9 | 94.7 | No impact | 98.9 | 98.5 | – | – | CN1CCN(CC(=O)N(C)c2ccc(N/C(=C3\C(=O)Nc4cc(C(=O)O)ccc43)c3ccccc3)cc2)CC1 [BIBF 1202] | – | – | –
– | – | did not cause changes | no effect | 16.5 | 28.7 | 7.33 | 18.60 | 12.3 | 99.7 | 94.6 | No impact | 100.6 | 96.4 | 101.3 | 100.7 | COC(=O)c1ccc2c(c1)NC(=O)/C2=C(\Nc1ccc(N(C)C(=O)CN2CCN(C)CC2)cc1)c1ccccc1 [NIN, Nintedanib] | 2 to 3 | 60.1 | 71
